According to patent US20240391956A1, “STAPLED PEPTIDES AND METHODS THEREOF” (FOG PHARMACEUTICALS, INC., priority 2023, published 2024):
Like-named read-outs stand apart in the source and are kept apart here. *1 amine or outer side, *2 acyl side, *3 side chain or, on linkers, in order; H or OH if unused. Where a SMILES comes first, the peptide text is derived from it. Bridges are numbered along the chain shown (N, C = ends). [ ]: non-standard residue; d: D form. Phenylene(1,4-NHCOCH2)2 = O=C(C[*:1])Nc1ccc(NC(=O)C[*:2])cc1; dNle = CCCC[C@@H](N)C(=O)O

Columns and labels:
[1] = biological target: T1, CHIP23-303 recombinant protein (Homo sapiens, UniProt Q9UNE7); assay: Competition fluorescence polarization with CHIP23-303 and HSP70-derived probe 5FAM-bAla-[…]; type: binding; details: competition FP, 400 nM CHIP23-303, 20 nM probe, 1 hour at room temperature; read-out: Measured KD
T1 construct: 6xHis (N, cleaved yes); TEV site (N, cleaved yes); made in house; host or cells: E. coli BL21 CodonPlus
T1 sequence (Q9UNE7 23-303): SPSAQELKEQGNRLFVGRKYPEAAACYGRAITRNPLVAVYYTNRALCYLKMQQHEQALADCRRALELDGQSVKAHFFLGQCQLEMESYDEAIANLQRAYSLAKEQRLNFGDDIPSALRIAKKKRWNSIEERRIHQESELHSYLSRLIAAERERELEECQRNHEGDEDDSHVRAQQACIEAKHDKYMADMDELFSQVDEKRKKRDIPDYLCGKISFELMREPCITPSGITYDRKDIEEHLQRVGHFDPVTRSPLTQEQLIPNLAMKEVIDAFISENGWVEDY
Experimental: For the competition FP of CHIP, stapled peptides at 10 mM in DMSO were serially diluted 1:3 in DMSO for a total of 11 concentrations using a Mosquito LV (SPT Labtech), then diluted 1000-fold in buffer (1×HBS-P+, Cytiva) in duplicate by the Mosquito LV (SPT Labtech) into a black polystyrene 384-well plate (Corning) (11-point three-fold peptide dilution series with top concentration=10 μM). The assay was performed with 400 nM CHIP23-303 recombinant protein as target, and 20 nM BCHIP-binding peptide as probe (5FAM-bAla-[…] (SEQ ID NO: 18), derived from HSP70). The plate was incubated and protected from light for 1 hour at room temperature prior to reading. Reads were performed on a CLARIOstar plate reader (BMG Labtech) with excitation at 485 nm, emission at 525 nm, and cutoff at 504 nm. Data were fitted to a 1:1 binding model with Hill slope using an in-house script.
In some embodiments, CHP polypeptide was prepared as follows: CHIP (residues 23-303 for competition FP and 23-154 for crystallography) with an N-terminal 6×His-TEV tag was recombinantly expressed in E. coli BL21 CodonPlus cells (Agilent) from a pET21b-derived expression vector (Novagen) (“6×His” disclosed as SEQ ID NO: 13). The cells were induced at OD600=0.6 with 1 mM IPTG for 4 hours at 37° C., then harvested and resuspended in 50 mM Tris-HCl pH 8.0, 500 mM NaCl, 10 mM imidazole, 10% glycerol, and 10 mM ß-me. For purification, the pellet was lysed with a tip sonicator with power level set at 400 W, 3 seconds on and 3 seconds off for 20 min, pelleted at 22,000×g for 30 minutes at 4° C. The supernatant was purified with Ni-NTA resin (Qiagen), eluting with 250 mM imidazole. Eluted proteins were pooled, concentrated, and TEV-cleaved by adding TEV protease at a ratio of 1:10 protease to protein and incubated overnight at 4° C. TEV-cleaved proteins were loaded onto a Superdex™ 10/300 75 pg (Cytiva) SEC column, and eluted in 50 mM HEPES, pH 8.0, 150 mM NaCl, 10% glycerol, 2 mM DTT. Fractions containing pure protein were collected, pooled, concentrated to 30 mg/mL and stored at −80° C. […]

[2] = biological target: T2, MDM2 (residues 25-109) (Homo sapiens, UniProt Q00987); assay: SPR binding to immobilized biotinylated MDM2 25-109 (Biacore 8K)
T2 construct: MDM2 (residues 25-109) with an N-terminal 6×His-yBBr-TEV tag was recombinantly expressed in E. coli; made in house; host or cells: E. coli BL21 CodonPlus
T2 sequence (Q00987 25-109): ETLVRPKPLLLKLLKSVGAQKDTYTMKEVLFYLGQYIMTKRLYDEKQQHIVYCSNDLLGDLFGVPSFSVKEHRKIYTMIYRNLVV
Experimental: SPR experiments were performed on a Biacore 8K (Cytiva) instrument at 25° C. in 1×HBS-P+ buffer (Cytiva) with 1% DMSO. A SA Series S sensor chip was docked and pre-conditioned with three injections of 50 mM NaOH/1 M NaCl to remove unbound streptavidin from the surface. Biotinylated MDM2^25-109 were diluted to 2 μg/mL in running buffer and immobilized to channels 1 through 8 at 5 μL/min for 71 sec for a final immobilization level of ˜390 RU. Peptides were diluted to 5 μM in running buffer then serially diluted 2-fold for a total of seven concentrations with one blank (7-point two-fold peptide dilution series with top concentration=5 μM and bottom concentration=78 nM). Compounds were injected over the immobilized and reference surfaces at 30 μL/min for 60 sec and then allowed to dissociate for 180 sec without surface regeneration (N=1). Data was analyzed using Biacore Insight Evaluation software (Cytiva). Sensorgrams were double referenced, with most of them fitted to a 1:1 steady state affinity model, with a few fitted with both steady state affinity model and kinetics model.
MDM2 expression: MDM2 (residues 25-109) with an N-terminal 6×His-yBBr-TEV tag was recombinantly expressed in E. coli BL21 CodonPlus cells (Agilent) from pET-derived expression vectors (Novagen) (“6×His” disclosed as SEQ ID NO: 13). The cells were induced at OD600=0.6 with 1 mM isopropyl β-D-1-thiogalactopyranoside (IPTG) for 4 hours at 37° C., then harvested and resuspended in 25 mM Tris-HCl pH 7.5, 300 mM NaCl, 10% glycerol, 1 mM PMSF. For purification, the pellet was lysed with a tip sonicator, and pelleted at 22,000×g for 30 minutes at 4° C. The pellets were washed with 20 mM Tris-HCl pH 8.0, 150 mM NaCl, 1 M urea, 1.0% triton X-100 three times, and the inclusion body was dissolved in 20 mM Tris-HCl pH 8.0, 150 mM NaCl, 8 M urea, and 2 mM ß-mercaptoethanol (ß-me). The supernatant was purified with Ni-NTA resin (Qiagen), eluting with 20 mM Tris-HCl pH 8.0, 150 mM NaCl, 8 M urea, 2 mM ß-me, and 250 mM imidazole. Protein elutes were diluted to ˜0.1 mg/mL and dialyzed into buffers containing 10 mM Tris-HCl pH 8.0, 150 mM NaCl, 2 mM ß-me, with 4, 2, 1, or 0 M urea, at 4° C. for 8 hours for each urea gradient. Urea-free proteins were concentrated with Amicon spin filters (Millipore Sigma) to ˜1 mg/mL and biotinylated via the yBBr reaction according to reported procedures (e.g., reported in Yin, J. et al. Genetically encoded short peptide tag for versatile protein labeling by Sfp phosphopantetheinyl transferase. Proceedings of the National Academy of Sciences 102, 15815-15820 (2005)). Biotinylated proteins were pooled, concentrated, and loaded onto a Superdex™ 10/300 75 pg (Cytiva) SEC column and eluted in 20 mM HEPES pH 7.0, 200 mM NaCl, 5% glycerol, 0.5 mM tris(2-carboxyethyl) phosphine (TCEP). Fractions containing pure protein were collected, pooled, concentrated to ˜1 mg/mL and stored at −80° C. In some embodiments, such MDM2 preparation were utilized in biochemical assays.

| Structure (SMILES) | Kd [2] [µM] | further results |
| --- | --- | --- |
| CSCC[C@@H](NC(=O)[C@@H](CCC(=O)O)NC(=O)[C@@H](Cc1c[nH]cn1)NC(=O)[C@H]1CCCN1C(C)=O)C(=O)N[C@@H]1CSCC(=O)Nc2ccc(cc2)NC(=O)CSC[C@H](C(=O)N[C@H](CCCNC(=N)N)C(=O)N[C@H](Cc2ccc(O)cc2)C(=O)N[C@H](CO)C(N)=O)NC(=O)[C@@H](Cc2ccc(O)cc2)NC(=O)[C@@H](C)NC(=O)[C@@H](CC(=O)O)NC(=O)[C@@H](C)NC(=O)[C@@H](Cc2c[nH]c3ccccc23)NC(=O)[C@@H](Cc2ccc(O)cc2)NC1=O [H203, Ac-phemcywadaycrys-NH2] (Ac-[dP][dH][dE][dM][dC][dY][dW][dA][dD][dA][dY][dC][dR][dY][dS]-NH2; linker 5-12 via Phenylene(1,4-NHCOCH2)2) |  | Kd [1]: 0.55 µM |
| CCCC[C@@H](NC(=O)[C@@H](CCC(N)=O)NC(=O)[C@@H](CC(C)C)NC(=O)[C@H]1CSCC(=O)Nc2ccc(cc2)NC(=O)CSC[C@@H](NC(=O)[C@H](NC(=O)[C@@H](C)NC(=O)[C@@H](Cc2c[nH]c3ccccc23)NC(=O)[C@@H](C)NC(=O)[C@H]2CCCN2C(=O)[C@@H](CC(=O)O)NC(C)=O)[C@H](C)O)C(=O)N[C@H](CCCC)C(=O)N[C@H](CC(=O)O)C(=O)N[C@H](C)C(=O)N[C@H](C)C(=O)N[C@H](CC(C)C)C(=O)N[C@H](CC(N)=O)C(=O)N1)C(N)=O [H106, Ac-dpawatcm*daalnclqm*- NH2] (Ac-[dD][dP][dA][dW][dA][dT][dC][dNle][dD][dA][dA][dL][dN][dC][dL][dQ][dNle]-NH2; linker 7-14 via Phenylene(1,4-NHCOCH2)2) | 1.8 |  |
| CCCC[C@H]1NC(=O)[C@@H](CC(=O)O)NC(=O)[C@@H](C)NC(=O)[C@@H](C)NC(=O)[C@@H](CC(C)C)NC(=O)[C@@H](CC(N)=O)NC(=O)[C@H](NC(=O)[C@@H](CCC(=O)O)NC(=O)[C@H](NC(=O)[C@@H](CC(C)C)NC(=O)[C@@H](C)NC(=O)[C@H]2CCCN2C(=O)[C@@H](CC(=O)O)NC(C)=O)C(C)C)CSCC(=O)Nc2ccc(cc2)NC(=O)CSC[C@H](C(=O)N[C@H](Cc2c[nH]cn2)C(=O)N[C@H](Cc2ccccc2)C(=O)N[C@H](Cc2ccc(O)cc2)C(N)=O)NC1=O [H104, Ac-dpalvecnlaadm*chfy-NH2] (Ac-[dD][dP][dA][dL][dV][dE][dC][dN][dL][dA][dA][dD][dNle][dC][dH][dF][dY]-NH2; linker 7-14 via Phenylene(1,4-NHCOCH2)2) | 1.8 |  |
| CC(=O)N[C@H](CC(=O)O)C(=O)N1CCC[C@@H]1C(=O)N[C@H](C)C(=O)N[C@H](CO)C(=O)N[C@H](CCCNC(=N)N)C(=O)N[C@H](CC(N)=O)C(=O)N[C@@H]1CSCC(=O)Nc2ccc(cc2)NC(=O)CSC[C@H](C(=O)N[C@H](CCC(=O)O)C(=O)N[C@H](Cc2ccc(O)cc2)C(=O)N[C@H](Cc2c[nH]c3ccccc23)C(N)=O)NC(=O)[C@@H](CC(C)C)NC(=O)[C@@H](Cc2c[nH]cn2)NC(=O)[C@@H](C)NC(=O)[C@@H](C)NC(=O)[C@@H](Cc2c[nH]c3ccccc23)NC(=O)[C@@H](CCC(N)=O)NC1=O [H107, Ac-dpasrncqwaahlceyw-NH2] (Ac-[dD][dP][dA][dS][dR][dN][dC][dQ][dW][dA][dA][dH][dL][dC][dE][dY][dW]-NH2; linker 7-14 via Phenylene(1,4-NHCOCH2)2) |  | Kd ([2]; SPR, 25° C., 7-point two-fold dilution, top concentration 5 μM, N=1, read-out: Measured KD): 1.1 µM |
| CCCC[C@H]1NC(=O)[C@@H](C)NC(=O)[C@@H](C)NC(=O)[C@@H](CCC(=O)O)NC(=O)[C@@H](CCCC)NC(=O)[C@H](NC(=O)[C@@H](CCC(=O)O)NC(=O)[C@@H](Cc2ccc(O)cc2)NC(=O)[C@@H](Cc2c[nH]c3ccccc23)NC(=O)[C@@H](C)NC(=O)[C@H]2CCCN2C(=O)[C@@H](CC(=O)O)NC(C)=O)CSCC(=O)Nc2ccc(cc2)NC(=O)CSC[C@H](C(=O)N[C@H](CCC(N)=O)C(=O)N[C@H](CCC(N)=O)C(=O)N[C@@H](C(N)=O)C(C)C)NC(=O)[C@@H](CCCC)NC1=O [H103, Ac-dpawyecm*eaam*m*cqqv-NH2] (Ac-[dD][dP][dA][dW][dY][dE][dC][dNle][dE][dA][dA][dNle][dNle][dC][dQ][dQ][dV]-NH2; linker 7-14 via Phenylene(1,4-NHCOCH2)2) | 0.88 |  |
| CCCC[C@H]1NC(=O)[C@@H](C)NC(=O)[C@@H](C)NC(=O)[C@@H](CCCC)NC(=O)[C@@H](C(C)C)NC(=O)[C@H](NC(=O)[C@@H](CCC(N)=O)NC(=O)[C@@H](Cc2c[nH]c3ccccc23)NC(=O)[C@@H](CO)NC(=O)[C@@H](C)NC(=O)[C@H]2CCCN2C(=O)[C@@H](CC(=O)O)NC(C)=O)CSCC(=O)Nc2ccc(cc2)NC(=O)CSC[C@H](C(=O)N[C@@H](C(=O)N[C@H](CC(C)C)C(=O)N[C@H](CC(=O)O)C(N)=O)C(C)C)NC(=O)[C@@H](CC(=O)O)NC1=O [H109, Ac-dpaswqcvm*aam*dcvld-NH2] (Ac-[dD][dP][dA][dS][dW][dQ][dC][dV][dNle][dA][dA][dNle][dD][dC][dV][dL][dD]-NH2; linker 7-14 via Phenylene(1,4-NHCOCH2)2) | 2.4 |  |
| CC(=O)N[C@H](CC(=O)O)C(=O)N1CCC[C@@H]1C(=O)N[C@H](C)C(=O)N[C@H](Cc1c[nH]c2ccccc12)C(=O)N[C@H](CC(N)=O)C(=O)N[C@H](Cc1c[nH]cn1)C(=O)N[C@@H]1CSCC(=O)Nc2ccc(cc2)NC(=O)CSC[C@H](C(=O)N[C@H](CO)C(=O)N[C@H](CCC(=O)O)C(=O)N[C@@H](C(N)=O)C(C)C)NC(=O)[C@@H](C(C)C)NC(=O)[C@@H](Cc2ccccc2)NC(=O)[C@@H](C)NC(=O)[C@@H](C)NC(=O)[C@@H](Cc2ccc(O)cc2)NC(=O)[C@@H](CCC(=O)O)NC1=O [H102, Ac-dpawnhceyaafvcsev-NH2] (Ac-[dD][dP][dA][dW][dN][dH][dC][dE][dY][dA][dA][dF][dV][dC][dS][dE][dV]-NH2; linker 7-14 via Phenylene(1,4-NHCOCH2)2) | 2.7 |  |
